Counter-ions that a name gives are not always drawn.
Experiments:
Swiss albino mice = assay: Plasma triglyceride and total cholesterol lowering activity in Swiss albino mice and Guinea pigs; format: in vivo, mouse; conditions: oral, 6 days
Procedure: c) Plasma Triglyceride and Total Cholesterol Lowering Activity in Swiss Albino Mice and Guinea Pigs
Male Swiss albino mice (SAM) and male Guinea pigs were obtained from NIN and housed in DRF animal house. All these animals were maintained under 12 hour light and dark cycle at 25±1° C. Animals were given standard laboratory chow (NIN Hyderabad, India) and water, ad libitum. SAM of 20-25 g body weight range and Guinea pigs of 500-700 g body weight range were used (Oliver, P., Plancke, M. O., Marzin, D., Clavey, V., Sauzieres, J and Fruchart, J. C. Effects of fenofibrate, gemfibrozil and nicotinic acid on plasma lipoprotein levels in normal and hyperlipidemic mice. Atherosclerosis. 1988. 70: 107-114).
The test compounds were administered orally to Swiss albino mice at 0.3 to 30 mg/kg/day dose for 6 days. Control mice were treated with vehicle (0.25% Carboxymethylcellulose; dose 10 ml/kg). The test compounds were administered orally to Guinea pigs at 0.3 to 30 mg/kg/day dose for 6 days. Control animals were treated with vehicle (0.25% Carboxymethylcellulose; dose 5 ml/kg).
The blood samples were collected in fed state 1 hour after drug administration on 0 and 6 day of treatment. The blood was collected from the retro-orbital sinus through heparinised capillary in EDTA containing tubes. After centrifugation, plasma sample was separated for triglyceride and total cholesterol (Wieland, O. Methods of Enzymatic analysis. Bergermeyer, H. O., Ed., 1963. 211-214; Trinder, P. Ann. Clin. Biochem. 1969. 6: 24-27). Measurement of plasma triglyceride, total cholesterol and HDL were done using commercial kits (Dr. Reddy's Diagnostic Division, Hyderabad, India).
1. Percent reduction in Blood sugar/triglycerides/total cholesterol were calculated according to the formula: [formula]

[1] = Single dose oral pharmacokinetic studies in male Wistar rats; format: in vivo, rat; conditions: fasted, suspension in 0.25% sodium CMC
Procedure: Single Dose Oral Pharmacokinetic Studies
Male Wistar rats (220-250 gm) were used in the experiments. The animals were maintained under standard laboratory conditions and had free access to feed and water ad libitum. Before experimentation animals were fasted overnight (˜15 h) during which they had free access to water ad libitum.
An amount equivalent to 30 mg of drug was weighed accurately and transferred into a clean mortar and triturated to obtain a fine powder. To this 0.5 ml of 0.25% sodium carboxy methyl cellulose (sodium CMC) was added to obtain a paste. To the obtained paste remaining 2.5 ml of sodium CMC was added to make up the volume to 3 ml. Based on the animal weight appropriate volume (body weight×3) of the prepared suspension was administered through oral gavage.
After dosing, at designated time points (0.5, 1, 2, 3, 5, 8, 12 and 24 h) 200 μl of blood was collected from retro orbital plexus into 0.5 ml eppendorff tubes containing EDTA (10 μl of 200 mg/ml solution in Milli Q water). Blood was centrifuged at 12,800 rpm for 5 min and obtained plasma and stored at −20° C. till further analysis.
100μl plasma was transferred into a clean and dry centrifuge tube. To this internal standard (10 μl of 100 μg/ml) was added and extracted with 2 ml of extraction recovery solvent. The contents were vortexed for 2 min, followed by centrifugation for 10 min at 2800 rpm. Clear organic layer (2×0.75 ml) was separated and dried under nitrogen gas at 50° C. The residue was reconstituted with 150 μl of mobile phase and vortexed for 20 sec, from this 50 μl was injected onto HPLC column.
Pharmacokinetic parameters were calculated by non-compartmental model analysis. The peak plasma concentration (Cmax) and the corresponding time (Tmax)were directly obtained from the raw data. The area under the plasma concentration versus time curve up to the last quantifiable time point, AUC(0−t) was obtained by the linear and log-linear trapezoidal summation. The AUC(0−t) extrapolated to infinity (i.e., AUC(0−∞)) by adding the quotient of Clast/Kel, where Clast represents the last measurable time concentration and Kel represents the apparent terminal rate constant. Kel was calculated by the linear regression of the log-transformed concentrations of the drug in the terminal phase. The half-life of the terminal elimination phase was obtained using the relationship t½=0.693/Kel.

hPPARα = molecular target: T1, hPPARα (Homo sapiens, UniProt Q07869); assay: Determination of hPPARα activity (GAL4 fusion luciferase reporter in transfected HEK-293 cells); format: cell-based; conditions: compound concentration 50 μM
T1 construct: expressed in transfected cells; host or cells: HEK-293
T1 sequence (Q07869 239-466 limits assumed): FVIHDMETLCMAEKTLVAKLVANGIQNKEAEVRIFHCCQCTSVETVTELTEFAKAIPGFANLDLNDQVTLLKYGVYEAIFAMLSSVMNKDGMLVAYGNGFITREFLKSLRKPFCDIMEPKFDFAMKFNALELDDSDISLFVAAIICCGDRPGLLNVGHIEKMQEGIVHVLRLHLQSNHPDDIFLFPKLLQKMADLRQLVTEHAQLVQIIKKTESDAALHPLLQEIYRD
Procedure: a) Determination of hPPARα Activity
Ligand binding domain of hPPARα was fused to DNA binding domain of Yeast transcription factor GAL4 in eucaryotic expression vector. Using superfect (Qiagen, Germany) as transfecting reagent HEK-293 cells were transfected with this plasmid and a reporter plasmid harboring the luciferase gene driven by a GAL4 specific promoter. Compound was added at different concentrations after 42 hrs of transfection and incubated overnight. Luciferase activity as a function of compound binding/activation capacity of PPARα was measured using Packard Luclite kit (Packard, USA) in Top Count (Ivan Sadowski, Brendan Bell, Peter Broag and Melvyn Hollis. Gene. 1992. 118: 137-141; Superfect Transfection Reagent Handbook. February 1997. Qiagen, Germany).

hPPARγ1 = molecular target: T2, hPPARγ1 (Homo sapiens, UniProt P37231); assay: Determination of hPPARγ activity (GAL4 fusion luciferase reporter in transfected HEK-293 cells); format: cell-based; conditions: compound concentration 1 μM
T2 construct: expressed in transfected cells; host or cells: HEK-293
T2 sequence (P37231 238-503 limits assumed): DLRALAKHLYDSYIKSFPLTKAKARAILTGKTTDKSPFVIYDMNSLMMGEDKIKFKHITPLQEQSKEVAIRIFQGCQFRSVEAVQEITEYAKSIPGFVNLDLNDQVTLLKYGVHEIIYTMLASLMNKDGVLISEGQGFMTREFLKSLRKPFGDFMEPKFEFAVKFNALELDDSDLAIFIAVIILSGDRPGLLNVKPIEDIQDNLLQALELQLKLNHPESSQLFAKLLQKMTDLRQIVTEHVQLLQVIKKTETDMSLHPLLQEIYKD
Procedure: b) Determination of hPPARγ Activity
Ligand binding domain of hPPARγ1 was fused to DNA binding domain of Yeast transcription factor GAL4 in eucaryotic expression vector. Using lipofectamine (Gibco BRL, USA) as transfecting reagent HEK-293 cells were transfected with this plasmid and a reporter plasmid harboring the luciferase gene driven by a GAL4 specific promoter. Compound was added at 1 μM concentration after 48 hrs of transfection and incubated overnight. Luciferase activity as a function of drug binding/activation capacity of PPARγ1 was measured using Packard Luclite kit (Packard, USA) in Packard Top Count (Ivan Sadowski, Brendan Bell, Peter Broag and Melvyn Hollis. Gene. 1992. 118: 137-141; Guide to Eukaryotic Transfections with Cationic Lipid Reagents. Life Technologies, GIBCO BRL, USA).

Row | Structure (SMILES) | Triglyceride Lowering (%) (Swiss albino mice; dose 3 mg/kg) | PPARα (hPPARα) | PPARγ (hPPARγ1) | also measured
1 | CCCc1nn(C)c2c(=O)n(CCOc3ccc(CC(OCC)C(=O)[O-])cc3)c(CC)nc12.CCCc1nn(C)c2c(=O)n(CCOc3ccc(CC(OCC)C(=O)[O-])cc3)c(CC)nc12.[Mg+2] (single isomer, unassigned; (-)) [Example 31, (−)-3-[4-[2-(1-Methyl-5-ethyl-7-oxo-3-propyl-6,7-dihydro-1H-pyrazolo[4,3-d]pyrimidin-6-yl)ethoxy]phenyl]-2-ethoxypropionic acid magnesium salt] | 84% |  |  | AUC (0-∞) [1]: 65.93 µg·h/mL; AUC(0-t) [1]: 64.70 µg·h/mL; Cmax [1]: 19.15 µg/mL; Kel [1]: 0.34 h⁻¹; Tmax [1]: 2.75 h; t½ [1]: 2.24 h
2 | CCO[C@@H](Cc1ccc(OCCn2c(CC)nc3ccccc3c2=O)cc1)C(=O)O [Example 1, (−)-3-[4-[2-(2-Ethyl-4-oxo-3,4-dihydroquinazolin-3-yl)ethoxy]phenyl]-2-ethoxypropanoic acid phenyl glycinol salt] | 87% |  |  | 
3 | CCO[C@@H](Cc1ccc(OCCn2c(CC)nc3ccccc3c2=O)cc1)C(=O)O [Example 3, (−)-3-[4-[2-(2-Ethyl-4-oxo-3,4-dihydroquinazolin-3-yl)ethoxy]phenyl]-2-ethoxypropanoic acid dicyclohexylamine salt] | 81% |  |  | 
4 | CCO[C@@H](Cc1ccc(OCCn2c(N=[N+]=[N-])nc3ccccc3c2=O)cc1)C(=O)O [Example 12, (−)-3-[4-[2-(2-Azido-4-oxo-3,4-dihydroquinazolin-3-yl)ethoxy]phenyl]-2-ethoxypropanoic acid magnesium salt] |  |  |  | Triglyceride Lowering (%) (Swiss albino mice; dose 0.3 mg/kg): 37%
5 | CCCc1nn(C)c2c(=O)n(CCOc3ccc(CC(OCC)C(=O)[O-])cc3)c(C)nc12.CCCc1nn(C)c2c(=O)n(CCOc3ccc(CC(OCC)C(=O)[O-])cc3)c(C)nc12.[Mg+2] (stereo not drawn) [Example 16, 3-[4-[2-(1,5-Dimethyl-7-oxo-3-propyl-6,7-dihydro-1H-pyrazolo[4,3-d]pyrimidin-6-yl)ethoxy]phenyl]-2-ethoxypropionic acid magnesium salt] |  | 3.4 | 13.5 | 
6 | CCCc1nn(C)c2c(=O)n(CCOc3ccc(C[C@H](OCC)C(=O)[O-])cc3)c(C)nc12.[Na+] [Example 20, 3-[4-[2-(1,5-Dimethyl-7-oxo-3-propyl-6,7-dihydro-1H-pyrazolo[4,3-d]pyrimidin-6-yl)ethoxy]phenyl]-2-ethoxypropionic acid sodium salt] |  | 3.5 | 13.0 | 
7 | CCCc1nn(C)c2c(=O)n(CCOc3ccc(C[C@H](OCC)C(=O)O)cc3)c(C)nc12 [Example 23, 3-[4-[2-(1,5-Dimethyl-7-oxo-3-propyl-6,7-dihydro-1H-pyrazolo[4,3-d]pyrimidin-6-yl)ethoxy]phenyl]-2-ethoxypropionic acid S-(+)-phenylglycinol salt] |  | 3.4 | 11.5 | 
8 | CCCc1nn(C)c2c(=O)n(CCOc3ccc(C[C@H](OCC)C(=O)O)cc3)c(CC)nc12 [Example 36, (−)-3-[4-[2-(1-Methyl-5-ethyl-7-oxo-3-propyl-6,7-dihydro-1H-pyrazolo[4,3-d]pyrimidin-6-yl)ethoxy]phenyl]-2-ethoxypropionic acid arginine salt] |  |  | 11.4 | 
9 | CCCc1nn(C)c2c(=O)n(CCOc3ccc(C[C@H](OCC)C(=O)O)cc3)c(CC)nc12 [Example 38, (−)-3-[4-[2-(1-Methyl-5-ethyl-7-oxo-3-propyl-6,7-dihydro-1H-pyrazolo[4,3-d]pyrimidin-6-yl)ethoxy]phenyl]-2-ethoxypropionic acid S-(+)-phenylglycinol salt] |  | 3.3 | 12.0 | 
10 | CCCc1nn(C)c2c(=O)n(CCOc3ccc(C[C@H](OCC)C(=O)O)cc3)c(CC)nc12 [Example 41, (−)-3-[4-[2-(1-Methyl-5-ethyl-7-oxo-3-propyl-6,7-dihydro-1H-pyrazolo[4,3-d]pyrimidin-6-yl)ethoxy]phenyl]-2-ethoxypropionic acid dicyclohexylamine salt] |  | 3.1 | 13.0 | 
11 | CCCc1nn(C)c2c(=O)n(CCOc3ccc(C[C@H](OCC)C(=O)O)cc3)c(CC)nc12 [Example 44, (−)-3-[4-[2-(1-Methyl-5-ethyl-7-oxo-3-propyl-6,7-dihydro-1H-pyrazolo[4,3-d]pyrimidin-6-yl)ethoxy]phenyl]-2-ethoxypropionic acid metformin salt] | 80% | 2.5 |  | 
12 | CCCc1nn(C)c2c(=O)n(CCOc3ccc(C[C@H](OCC)C(=O)O)cc3)c(CC)nc12 [Example 45, (−)-3-[4-[2-(1-Methyl-5-ethyl-7-oxo-3-propyl-6,7-dihydro-1H-pyrazolo[4,3-d]pyrimidin-6-yl)ethoxy]phenyl]-2-ethoxypropionic acid Lysine salt] | 81% |  |  | AUC (0-∞) [1]: 101.29 µg·h/mL; AUC(0-t) [1]: 99.33 µg·h/mL; Cmax [1]: 24.22 µg/mL; Kel [1]: 0.42 h⁻¹; Tmax [1]: 2.38 h; t½ [1]: 1.72 h

Source: US20020169175A1, “Pharmaceutically acceptable salts of heterocyclic compounds” (DR. REDDY'S LABORATORIES LTD., priority 2001, published 2002)
